Literature values in patent publication US9364565B2, “Medical device with coating for capturing genetically-altered cells and methods of using same” (OrbusNeich Medical, Inc., priority 2000, dated 2016).

How the values were obtained:
VEGFR-2 = VEGFR-2 (Homo sapiens, UniProt P35968)
endothelial cells = details: 100 μg

Chain of VEGFR-2 (P35968 20-1356): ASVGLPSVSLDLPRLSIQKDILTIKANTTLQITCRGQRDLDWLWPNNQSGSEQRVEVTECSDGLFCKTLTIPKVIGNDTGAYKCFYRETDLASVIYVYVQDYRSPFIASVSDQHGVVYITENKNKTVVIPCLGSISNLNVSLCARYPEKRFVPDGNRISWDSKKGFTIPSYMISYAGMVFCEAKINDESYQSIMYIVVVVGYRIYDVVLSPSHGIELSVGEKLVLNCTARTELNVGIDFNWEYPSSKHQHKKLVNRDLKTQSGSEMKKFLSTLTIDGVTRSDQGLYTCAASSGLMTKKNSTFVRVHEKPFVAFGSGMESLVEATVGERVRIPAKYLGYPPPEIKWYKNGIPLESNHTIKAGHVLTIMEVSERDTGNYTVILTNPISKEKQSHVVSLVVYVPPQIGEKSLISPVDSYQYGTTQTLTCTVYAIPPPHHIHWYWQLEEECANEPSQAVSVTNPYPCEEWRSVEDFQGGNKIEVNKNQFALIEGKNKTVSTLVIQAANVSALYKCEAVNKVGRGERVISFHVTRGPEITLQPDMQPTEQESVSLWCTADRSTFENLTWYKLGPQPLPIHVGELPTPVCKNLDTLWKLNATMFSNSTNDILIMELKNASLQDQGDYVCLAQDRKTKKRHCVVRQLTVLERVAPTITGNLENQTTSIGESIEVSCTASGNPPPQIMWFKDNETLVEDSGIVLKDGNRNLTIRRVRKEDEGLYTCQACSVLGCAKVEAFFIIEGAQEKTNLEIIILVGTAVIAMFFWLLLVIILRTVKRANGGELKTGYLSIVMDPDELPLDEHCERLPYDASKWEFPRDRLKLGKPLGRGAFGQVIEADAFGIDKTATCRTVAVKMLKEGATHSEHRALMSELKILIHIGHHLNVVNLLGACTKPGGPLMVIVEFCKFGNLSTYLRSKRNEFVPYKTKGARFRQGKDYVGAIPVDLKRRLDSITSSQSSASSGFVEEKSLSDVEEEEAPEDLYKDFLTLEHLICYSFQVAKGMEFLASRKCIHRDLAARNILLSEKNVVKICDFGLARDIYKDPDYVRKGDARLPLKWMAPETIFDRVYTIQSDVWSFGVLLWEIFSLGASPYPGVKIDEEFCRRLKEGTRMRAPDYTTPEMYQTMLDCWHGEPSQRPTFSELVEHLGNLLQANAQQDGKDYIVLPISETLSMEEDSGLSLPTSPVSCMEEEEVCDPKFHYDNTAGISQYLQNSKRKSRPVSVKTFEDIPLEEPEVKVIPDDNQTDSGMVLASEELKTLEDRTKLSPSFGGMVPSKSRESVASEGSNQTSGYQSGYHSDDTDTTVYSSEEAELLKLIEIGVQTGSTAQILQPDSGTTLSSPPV

binding to VEGFR-2 (VEGFR-2) | Compound | adherence of endothelial cells on a medical device (endothelial cells)
bind to VEGFR-2 | Cc1[nH]c(/C=C2\C(=O)Nc3ccccc32)c(C)c1CCC(=O)O [SU6668] | –
– | VEGF | stimulate the adherence of endothelial cells on a medical device
